Laboratory results reported in patent US20030187240A1, “2' -modified oligonucleotides” (ISIS Pharmaceuticals, Inc., priority 1990, published 2003).
d = 2'-deoxy (DNA); f = 2'-fluoro

How the values were obtained:
[1] = system: RNA complement “Y” strand ribo(3′GAG CAU GGY AAG GCC AGG5′); assay: Base-pair specificity: single base-pair mismatches and a bulge (Table 2); type: binding
Procedure: The ability of the 2′-modified oligonucleotides to hybridize to their complementary RNA or DNA sequences was determined by thermal melting analysis. The RNA complement was synthesized from T7 RNA polymerase and a template-promoter of DNA synthesized with an Applied Biosystems, Inc. 380B RNA species was purified by ion exchange using FPLC (LKB Pharmacia, Inc.). Natural antisense oligonucleotides or those containing 2′-modifications at specific locations were added to either the RNA or DNA complement at stoichiometric concentrations and the absorbance (260 nm) hyperchromicity upon duplex to random coil transition was monitored using a Gilford Response II spectrophotometer. These measurements were performed in a buffer of 10 mM Na-phosphate, pH 7.4, 0.1 mM EDTA, and NaCl to yield an ionic strength of 10 either 0.1 M or 1.0 M. Data was analyzed by a graphic representation of 1/Tm vs ln[Ct], where [Ct] was the total oligonucleotide concentration. From this analysis the thermodynamic parameters were determined. Based upon the information gained concerning the stability of the duplex of heteroduplex formed, the placement of modified pyrimidine into oligonucleotides were assessed for their effects on helix stability.
Base-pair specificity of 2′-deoxy-2′-fluoro modified oligonucleotides with the RNA complement (a “Y” strand) was determined by effecting single base-pair mismatches and a bulge. […] In Table 2, the underlined nucleotides represent nucleotides that include a 2′-deoxy-2′-fluoro substituent.

[2] = system: codon-12 point mutation of mutant (activated) H-ras RNA; type: cell-based, human
ras mRNA = assay: Northern blot analysis of ras expression in T24 cells; type: cell-based, human; set-up: inhibition of ras expression / decrease of ras mRNA: concentration or dose not given beside the values
Procedure: The human urinary bladder cancer cell line T24 was obtained from the American Type Culture Collection (Rockville Md.). Cells were grown in McCoy's 5A medium with L-glutamine (GIBCO-BRL, Gaithersburg, Md.), supplemented with 10% heat-inactivated fetal calf serum and 50 U/ml each of penicillin and streptomycin. Cells were seeded on 100 mm plates. When they reached 70% confluency, they were treated with oligonucleotide. Plates were washed with 10 ml prewarmed PBS and 5 ml of OptiMEM (GIBCO) reduced-serum medium containing 2.5 μl DOTMA. Oligonucleotide was then added to the desired concentration. After 4 hours of treatment, the medium was replaced with McCoy's medium. Cells were harvested 48 hours after oligonucleotide treatment and RNA was isolated using a standard CsCl purification method. [Kingston in Current Protocols in Molecular Biology, F. M. Ausubel, R. Brent, R. E. Kingston, D. D. Moore, J. A. Smith, J. G. Seidman and K. Strahl, Eds., John Wiley and Sons, New York.] The human epithelioid carcinoma cell line HeLa 229 was obtained from the American Type Culture Collection (Bethesda, Md.). HeLa cells were maintained as monolayers on 6-well plates in Dulbecco's Modified Eagle's medium (DMEM) supplemented with 10 fetal bovine serum and 100 U/ml penicillin. Treatment with oligonucleotide and isolation of RNA were essentially as described above for T24 cells.
Northern hybridization: 10 μg of each RNA was electrophoresed on a 1.2% agarose/formaldehyde gel and transferred overnight to GeneBind 45 nylon membrane (Pharmacia LKB, Piscataway, N.J.) using standard methods. [Kingston in Current Protocols in Molecular Biology, F. M. Ausubel, R. Brent, R. E. Kingston, D. D. Moore, J. A. Smith, J. G. Seidman and K. Strahl, Eds., John Wiley and Sons, New York.] RNA was UV-crosslinked to the membrane. Double-stranded ^32P-labeled probes were synthesized using the Prime a Gene labeling kit (Promega, Madison Wis.). The ras probe was a SalI-NheI fragment of a cDNA clone of the activated (mutant) H-ras mRNA having a GGC-to-GTC mutation at codon-12. The control probe was G3PDH. Blots were prehybridized for 15 minutes at 68° C. with the QuickHyb hybridization solution (Stratagene, La Jolla, Calif.). The heat-denatured radioactive probe (2.5×10^6 counts/2 ml hybridization solution) mixed with 100 μl of 10 mg/ml salmon sperm DNA was added and the membrane was hybridized for 1 hour at 68° C. The blots were washed twice for 15 minutes at room temperature in 2×SSC/0.1% SDS and once for 30 minutes at 60° C. with 0.1×SSC/0.1%SDS. Blots were autoradiographed and the intensity of signal was quantitated using an ImageQuant PhosphorImager (Molecular Dynamics, Sunnyvale, Calif.). Northern blots were first hybridized with the ras probe, then stripped by boiling for 15 minutes in 0.1×SSC/0.1%SDS and rehybridized with the control G3PDH probe to check for correct sample loading.

[3] = system: complementary RNA strand (the sense strand); assay: Thermal melting analysis of 2′-deoxy-2′-fluoro modified oligonucleotides (Table 1); type: binding
[4] = Y = C, mismatch, difference to Watson-Crick
[5] = Y = G, mismatch, difference to Watson-Crick
[6] = Y = None, bulged T/U, difference to Watson-Crick
[7] = Y = U, mismatch, difference to Watson-Crick
[8] = G°37, antisense strand duplexed with RNA sense strand
[9] = difference (delta Tm) to the unmodified strand
[10] = first Tm column, duplex with RNA sense strand

deoxy(CTC GTA CCT TTC CGG TCC) (CTCGTACCTTTCCGGTCC; DNA, backbone not given here) [reference compound]
G°37 ([1]; Y = A, Watson-Crick): -14.57 ± 0.13 kcal/mol | Tm (° C.) ([1]; Y = A, Watson-Crick): 61.6 °C | G°37 ([1]; Y = C, mismatch): -12.78 ± 0.11 kcal/mol | Tm (° C.) ([1]; Y = C, mismatch): 54.4 °C | G°37 [1, 4]: 1.79 ± 0.17 kcal/mol | Tm (° C.) [1, 4]: −7.2 °C | G°37 ([1]; Y = G, mismatch): -16.39 ± 0.25 kcal/mol | Tm (° C.) ([1]; Y = G, mismatch): 61.7 °C | G°37 [1, 5]: -1.82 ± 0.28 kcal/mol | Tm (° C.) [1, 5]: 0.1 °C | G°37 ([1]; Y = None, bulged T/U): -14.86 ± 0.35 kcal/mol | Tm (° C.) ([1]; Y = None, bulged T/U): 59.4 °C | G°37 [1, 6]: -0.284 ± 0.37 kcal/mol | Tm (° C.) [1, 6]: −2.2 °C | G°37 ([1]; Y = U, mismatch): -13.48 ± 0.17 kcal/mol | Tm (° C.) ([1]; Y = U, mismatch): 55.9 °C | G°37 [1, 7]: 1.09 ± 0.22 kcal/mol | Tm (° C.) [1, 7]: −5.7 °C

CsCsAsCsAsCsCsGsAoCsGsGsCsGsCsCsC [Oligonucleotide 4248]
effect on ras expression (ras-luciferase reporter system), chimeric backbone-modified oligonucleotides [2]: just as active as a full P═S molecule

C^MC^MA^M C^MA^MC^M CdGdAd CdGdG^M C^MG^MC^M C^MC^M [Oligonucleotide 3980]
inhibition of ras expression in T24 cells (ras mRNA; result in words): inhibited ras expression

3975 (CCACACCGACGGCGCCC; chimeric 2'-O-methyl phosphorothioate, pattern not given here) [Oligonucleotide 3975]
inhibition of ras-luciferase activity [2]: neither of the oligonucleotides having either the one or the three 2′-deoxy-erythro-pentofuranosyl nucleotide subsequences showed significant activity

deoxy(CUC GUA CCU UUC CGG UCC) (CUCGUACCUUUCCGGUCC; sugars from the 5' end fffdfffffffffddffd, backbone, methylation of C and T or U not given here)
G°37 ([1]; Y = A, Watson-Crick): -27.80 ± 0.05 kcal/mol | Tm (° C.) ([1]; Y = A, Watson-Crick): 81.6 °C | G°37 ([1]; Y = C, mismatch): -21.98 ± 0.28 kcal/mol | Tm (° C.) ([1]; Y = C, mismatch): 73.8 °C | G°37 [1, 4]: 5.82 ± 0.28 kcal/mol | Tm (° C.) [1, 4]: −7.8 °C | G°37 ([1]; Y = G, mismatch): -21.69 ± 0.16 kcal/mol | Tm (° C.) ([1]; Y = G, mismatch): 77.8 °C | G°37 [1, 5]: 6.12 ± 0.17 kcal/mol | Tm (° C.) [1, 5]: −3.8 °C | G°37 ([1]; Y = None, bulged T/U): -22.87 ± 0.27 kcal/mol | Tm (° C.) ([1]; Y = None, bulged T/U): 75.5 °C | G°37 [1, 6]: 4.94 ± 0.27 kcal/mol | Tm (° C.) [1, 6]: −6.2 °C | G°37 ([1]; Y = U, mismatch): -18.68 ± 0.15 kcal/mol | Tm (° C.) ([1]; Y = U, mismatch): 73.6 °C | G°37 [1, 7]: 9.13 ± 0.16 kcal/mol | Tm (° C.) [1, 7]: −8.0 °C | specificity of duplex formation with the RNA complement ([1]; versus like-sequenced unmodified oligonucleotide): greater specificity than a like-sequenced unmodified oligonucleotide

3980 (CCACACCGACGGCGCCC; chimeric 2'-O-methyl phosphorothioate, pattern not given here) [Oligonucleotide 3980]
inhibition of ras expression / decrease of ras mRNA (ras mRNA): 61% | inhibition of ras-luciferase activity [2]: next greatest inhibition

CUC GUA CCU UCC GGU CC (CUCGUACCUUCCGGUCC; 2'-deoxy-2'-fluoro A, T, C, chemistry not fully specified)
G°37 [3, 8]: -27.81 ± 0.05 kcal/mol | Tm (° C.) [3, 9]: +1.4 °C | G°37 ([3]; difference to the unmodified strand): -13.24 ± 0.14 kcal/mol | Tm (° C.) [3, 10]: 81.6 °C

CTC GTA CCT TCC GGT CC (CTCGTACCTTCCGGTCC; listed as DNA, chemistry not fully specified) [reference compound]
G°37 [3, 8]: -14.57 ± 0.13 kcal/mol | Tm (° C.) [3, 10]: 61.6 °C

ps(CGA CTA TGC AAG TAC) [reference compound]
G°37 [3, 8]: -7.58 ± 0.06 kcal/mol | Tm (° C.) [3, 9]: −11.2 °C | Tm (° C.) [3, 10]: 33.9 °C
